Results from the Kinase Knowledgebase extract (Sharma et al. 2016).

What follows are compounds tested against PIK3CB;PIK3CG;PIK3CD;PIK3CA (human) (UniProt P48736) (assay: Enzyme Assay).

Compound | IC50 [µM]
COC(=O)c1cc(S(C)(=O)=O)c2nc(-n3ccnc3)nc(N3CCOCC3)c2n1 | 0.57
CSc1cc(-c2nc(C)no2)nc2c(N3CCOCC3)nc(-n3cccn3)nc12 | 0.22
Cc1noc(-c2cc(N(C)C)c3nc(-n4ccnc4)nc(N4CCOCC4)c3n2)n1 | 0.59
CSc1cc(CO)nc2c(N3CCOCC3)nc(-c3ccsc3)nc12 | 3.88
COC(=O)c1cc(N2CCN(C)CC2)c2nc(-n3ccnc3)nc(N3CCOCC3)c2n1 | 1.01
COCCN(C)c1cc(C(=O)OC)nc2c(N3CCOCC3)nc(-n3ccnc3)nc12 | 1.42
COC(=O)c1cc(SC)c2nc(-c3cccc4[nH]ccc34)nc(N3CCOCC3)c2n1 | 1.27
COC(=O)c1cc(SC)c2nc(Cl)nc(N3CCOCC3)c2n1 | 3.53
CN(C)CCNCc1ccc2nc(-n3ccnc3)nc(N3CCOCC3)c2n1 | 1.89
COC(=O)c1cc(N2CCOCC2)c2nc(-n3ccnc3)nc(N3CCOCC3)c2n1 | 0.67
CN(C)CCNC(=O)c1cc(NCCN(C)C)c2nc(-n3ccnc3)nc(N3CCOCC3)c2n1 | 1.76
Cc1noc(-c2ccc3nc(-n4cccn4)nc(N4CCOCC4)c3n2)n1 | 0.5
COC(=O)c1cc(SC)c2nc(-n3ccnc3)nc(N3CCOCC3)c2n1 | 0.35
COC(=O)c1cc(SC)c2nc(-c3ccsc3)nc(N3CCOCC3)c2n1 | 1.83
COC(=O)c1ccc2nc(-n3ccnc3)nc(N3CCOCC3)c2n1 | 0.73
CN(C)Cc1ccc2nc(-n3ccnc3)nc(N3CCOCC3)c2n1 | 3.2
COC(=O)c1cc(S(C)(=O)=O)c2nc(Cl)nc(N3CCOCC3)c2n1 | 2.31
COC(=O)c1cc(SC)c2nc(-c3cnn(C)c3)nc(N3CCOCC3)c2n1 | 1.21
CSc1cc(C(=O)N(C)C)nc2c(N3CCOCC3)nc(-c3cccc4[nH]ncc34)nc12 | 0.86

Compound | IC50 [µM]
COC(=O)c1cc(SC)c2nc(C)nc(N3CCOCC3)c2n1 | 6.86
COCc1noc(-c2ccc3nc(-n4ccnc4)nc(N4CCOCC4)c3n2)n1 | 0.64
COC(=O)c1cc(SC)c2nc(-c3cn[nH]c3)nc(N3CCOCC3)c2n1 | 1.27
COC(=O)c1cc(-n2cccc2)c2nc(-n3cccc3)nc(N3CCOCC3)c2n1 | 8.06
COC(=O)c1cc(Cl)c2nc(-n3ccnc3)nc(N3CCOCC3)c2n1 | 0.81
CSCc1ccc2nc(-n3ccnc3)nc(N3CCOCC3)c2n1 | 3.76
COCc1cc(N(C)C)c2nc(-n3ccnc3)nc(N3CCOCC3)c2n1 | 1.16
COCCN(C)c1cc(-c2nc(C)no2)nc2c(N3CCOCC3)nc(-n3cccn3)nc12 | 2.51
CSc1cc(-c2nnc(C)o2)nc2c(N3CCOCC3)nc(-n3ccnc3)nc12 | 0.32
NC(=O)c1ccc2nc(-n3ccnc3)nc(N3CCOCC3)c2n1 | 1.83
Cc1nnc(-c2cc(N(C)C)c3nc(-n4ccnc4)nc(N4CCOCC4)c3n2)o1 | 0.23
COCCN(C)c1cc(-c2nnc(C)o2)nc2c(N3CCOCC3)nc(-n3ccnc3)nc12 | 0.42
CNC(=O)c1ccc2nc(-n3ccnc3)nc(N3CCOCC3)c2n1 | 1.1
COC(=O)c1cc(Cl)c2nc(-n3cccn3)nc(N3CCOCC3)c2n1 | 1.65
CSc1cc(-c2nc(C)no2)nc2c(N3CCOCC3)nc(-n3ccnc3)nc12 | 3.53
COCc1ccc2nc(-n3ccnc3)nc(N3CCOCC3)c2n1 | 0.83
CN(C)C(=O)c1ccc2nc(-n3ccnc3)nc(N3CCOCC3)c2n1 | 2.97
c1cnc2c(N3CCOCC3)nc(-n3ccnc3)nc2c1 | 5.28
COCc1noc(-c2ccc3nc(-n4cccn4)nc(N4CCOCC4)c3n2)n1 | 0.83

Compound | IC50 [µM]
COC(=O)c1cc(SC)c2nc(-c3ccc(OC)cc3)nc(N3CCOCC3)c2n1 | 11.4
Cc1ccc2nc(-n3ccnc3)nc(N3CCOCC3)c2n1 | 0.95
COC(=O)c1cc(SC)c2nc(-c3ccccc3)nc(N3CCOCC3)c2n1 | 2.84
Cc1noc(-c2ccc3nc(-n4ccnc4)nc(N4CCOCC4)c3n2)n1 | 0.8
COCc1cc(SC)c2nc(-n3ccnc3)nc(N3CCOCC3)c2n1 | 2.31
COCCNc1cc(C(=O)OC)nc2c(N3CCOCC3)nc(-n3ccnc3)nc12 | 1.29
Cc1noc(-c2cc(N(C)C)c3nc(-n4cccn4)nc(N4CCOCC4)c3n2)n1 | 0.48
OCc1ccc2nc(-n3ccnc3)nc(N3CCOCC3)c2n1 | 3.99
COC(=O)c1ccc2nc(-c3ccccc3)nc(N3CCOCC3)c2n1 | 0.43
Cc1ccc2nc(Cl)nc(N3CCOCC3)c2n1 | 8.61
COC(=O)c1cc(Cl)c2nc(Cl)nc(N3CCOCC3)c2n1 | 12.4
CSc1cc(C(=O)N(C)C)nc2c(N3CCOCC3)nc(-c3cccc(CO)c3)nc12 | 0.14
COC(=O)c1cc(SC)c2nc(-c3ccncc3)nc(N3CCOCC3)c2n1 | 5.72
Cc1noc(-c2cc(Cl)c3nc(-n4ccnc4)nc(N4CCOCC4)c3n2)n1 | 3.29
OCc1cc(N2CCOCC2)c2nc(-n3ccnc3)nc(N3CCOCC3)c2n1 | 2.98
COCc1cc(CN2CCOCC2)c2nc(-n3ccnc3)nc(N3CCOCC3)c2n1 | 8.45
COC(=O)c1cc(N(C)C)c2nc(-n3ccnc3)nc(N3CCOCC3)c2n1 | 0.42
Cc1ccc2nc(-c3ccccc3)nc(N3CCOCC3)c2n1 | 1.84
